Experimental findings from PubChem BioAssay (NCI) are described below.

Some test systems named below: DLD-1 colon; DMS 273 small cell lung; HOP-18 NSCLC; KM20L2 colon; LXFL 529 NSCLC; RXF-631 renal; SNB-78 CNS; XF 498 CNS; MDA-N.
Common to all, as to assay: DTP human tumour cell line panel, 48 h

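Growth conditions: 96-well plates. Treatment: test compound, 48 hours, 5 concentrations. Analysis: linear interpolation between bracketing concentrations; unreached endpoints set to highest concentration. At the GI50, growth is halved. The concentration for full growth arrest is given as TGI.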 Bounds are passed on as bounds.

Take `O=C1CCC(=O)N2CCCCN12`: the total growth inhibition concentration (TGI) in the assay on DLD-1 colon, with DMS 273 small cell lung, in the assay with HOP-18 NSCLC, in the assay with KM20L2 colon, in the assay on LXFL 529 NSCLC and in the assay on RXF-631 renal was greater than 100 µM in each case. In the assay on SNB-78 CNS, this compound had a TGI greater than 100 µM.

In the case of `O=C(O)CNS(=O)(=O)c1ccc(NCc2ccccc2)cc1`, the TGI with DLD-1 colon, in the assay with DMS 273 small cell lung, in the assay with HOP-18 NSCLC, in the assay with KM20L2 colon, in the assay on LXFL 529 NSCLC and in the assay on SNB-78 CNS was greater than 100 µM throughout. In the assay with XF 498 CNS, this compound had a concentration for total growth inhibition (TGI) greater than 100 µM.

With `COc1ccc(/C=C/CN(C)CCc2ccccc2)cc1OC`, the TGI in the assay on DMS 273 small cell lung, in the assay on KM20L2 colon, in the assay on LXFL 529 NSCLC and with SNB-78 CNS was greater than 100 µM throughout.

Regarding `COC(=O)C1Cc2c(n(Cc3ccccc3)c3ccccc23)C(CCC(=O)O)N1C(C)C` (centres undefined), the total growth inhibition concentration (TGI) in the assay with DLD-1 colon, in the assay on DMS 273 small cell lung, in the assay on HOP-18 NSCLC, in the assay with KM20L2 colon, with LXFL 529 NSCLC and in the assay on RXF-631 renal was greater than 100 µM throughout. Also, the total growth inhibition concentration (TGI) in the assay with SNB-78 CNS was greater than 100 µM.

In the case of `C/C(CC(=O)Nc1cc(Cl)c(Cl)cc1Cl)=N\NC(N)=O`, the TGI in the assay with DLD-1 colon, in the assay on DMS 273 small cell lung, with KM20L2 colon, with LXFL 529 NSCLC, in the assay on RXF-631 renal and in the assay with XF 498 CNS was greater than 100 µM each time.

On to `CCC[CH2][Sn]1([CH2]CCC)[O]Cc2nc(C)ccc2[O]1`, for which the GI50 was 10.2 µM in the assay with DLD-1 colon; 11 µM with DMS 273 small cell lung; 10.9 µM in the assay on KM20L2 colon; 2.07 µM with LXFL 529 NSCLC; 2.38 µM in the assay with SNB-78 CNS; 2.34 µM in the assay on XF 498 CNS. In addition, the TGI in the assay with DLD-1 colon was determined as 21.9 µM; with DMS 273 small cell lung, 22.9 µM; in the assay on KM20L2 colon, 23.6 µM; in the assay with LXFL 529 NSCLC, 5.75 µM; in the assay on SNB-78 CNS, 6.39 µM; with XF 498 CNS, 7.8 µM.

In the assay on MDA-N, `COc1ccc(NC2=CC(=O)C(=O)c3ccccc32)nn1` registered a TGI of 1.16 µM.

In the case of `C[C@]12CC[C@H]3[C@@H](CC=C4C[C@@H](O)CC[C@@]43C)[C@@H]1CC[C@@H]2N(CCO)CCO`, the TGI in the assay with MDA-N was greater than 100 µM.

On to `O=C(/N=N/C(=O)OCc1ccccc1)OCc1ccccc1`, for which the TGI in the assay on DMS 273 small cell lung, in the assay with HOP-18 NSCLC, in the assay with KM20L2 colon, with LXFL 529 NSCLC, with RXF-631 renal and in the assay on SNB-78 CNS was greater than 100 µM throughout. In the assay on XF 498 CNS, this compound yielded a TGI greater than 100 µM.

`COc1ccc(/C=C/c2nccc3ccccc23)cc1OC` returned a TGI with MDA-N greater than 10 µM.

The compound `CC[C@@H]1CN(C)[C@H]2Cc3c([nH]c4ccccc34)C(=O)C[C@H]1C2C(=O)OC` (some centres undefined) showed a TGI in the assay with MDA-N greater than 100 µM.

In the assay with MDA-N, `CC(=O)OCCN1c2ccccc2Sc2cnccc21` returned a TGI greater than 10 µM.

On to `CC(C)(C)C1C=C(Sc2ccccc2)C(=O)O1` (centres undefined), for which the TGI in the assay on DLD-1 colon, in the assay with DMS 273 small cell lung, in the assay on HOP-18 NSCLC, in the assay on KM20L2 colon, with LXFL 529 NSCLC and with SNB-78 CNS was greater than 100 µM each time.

With `Cc1cccc(C)c1NC(=O)C(=O)C1C(=O)NC(=O)NC1=O`, the total growth inhibition concentration (TGI) in the assay on DLD-1 colon, in the assay on DMS 273 small cell lung, in the assay with HOP-18 NSCLC, in the assay on KM20L2 colon, with LXFL 529 NSCLC and in the assay with RXF-631 renal was greater than 100 µM each time. Also, the TGI with SNB-78 CNS and in the assay on XF 498 CNS was greater than 100 µM in each case.

As for `COC(=O)/C(=N/NC(=O)C[N+](C)(C)C)C(C(=O)OC)C(=O)C(=O)Nc1ccc(F)cc1` (centres undefined), the TGI with DLD-1 colon, in the assay with DMS 273 small cell lung, in the assay with HOP-18 NSCLC, in the assay with KM20L2 colon, with LXFL 529 NSCLC and in the assay with RXF-631 renal was greater than 100 µM in each case. For the same compound, the concentration for total growth inhibition (TGI) in the assay on SNB-78 CNS is greater than 100 µM.

The compound `COC1/C=C\C=C(/C)C(=O)NC2=CC(=O)C(=O)C(=C2O)CC(C)CC(OC)C(O)C(C)/C=C(\C)C1OC(N)=O` (centres undefined) showed a total growth inhibition concentration (TGI) in the assay on MDA-N of 12.2 µM.

Take `O=C1O[C@@H](c2ccc3c(c2)OCO3)C2C(=O)O[C@@H](c3ccc4c(c3)OCO4)C12` (some centres undefined): the TGI in the assay with DMS 273 small cell lung, in the assay on HOP-18 NSCLC, in the assay with KM20L2 colon, in the assay on RXF-631 renal, with SNB-78 CNS and in the assay with XF 498 CNS was greater than 100 µM each time.

In the case of `CC[C@@]1(O)C(=O)OCc2c1cc1n(c2=O)Cc2c-1nc1cc3c(cc1c2CCl)OCO3`, in the assay with MDA-N, the concentration for 50% growth inhibition (GI50) was less than 0.01 µM and the TGI was found to be 1.63 µM.

Consider `CC[CH2][Sn]([CH2]CC)([O]C(=O)c1cccnc1SC)[O][Sn]([CH2]CC)([CH2]CC)[O]C(=O)c1cccnc1SC`, for which the GI50 was 0.219 µM in the assay on DLD-1 colon; 0.367 µM with DMS 273 small cell lung; 0.689 µM with HOP-18 NSCLC; 0.775 µM in the assay on KM20L2 colon; 0.0198 µM in the assay with LXFL 529 NSCLC; 1.27 µM in the assay with MDA-N. The GI50 in the assay with SNB-78 CNS was 0.138 µM; in the assay on XF 498 CNS it was 0.159 µM. Moreover, the concentration for total growth inhibition (TGI) in the assay with DLD-1 colon was 0.998 µM; in the assay on DMS 273 small cell lung, 1.69 µM; with HOP-18 NSCLC it was 1.81 µM; in the assay with KM20L2 colon it was 2.11 µM; in the assay on LXFL 529 NSCLC, 0.155 µM; with MDA-N it was 2.52 µM. The total growth inhibition concentration (TGI) with SNB-78 CNS amounted to 1.14 µM; in the assay on XF 498 CNS, 0.296 µM.

On to `CCOC(=O)C1=C(OC(OCC)C(CC)[Se]c2ccccc2)CCCC1` (centres undefined), for which the total growth inhibition concentration (TGI) in the assay on DLD-1 colon was 35.5 µM; in the assay with DMS 273 small cell lung it was 29.2 µM; with HOP-18 NSCLC, 86.4 µM; in the assay on KM20L2 colon, 37.3 µM; in the assay on LXFL 529 NSCLC, 91.8 µM; in the assay on RXF-631 renal it was 27.9 µM. Besides, the TGI with SNB-78 CNS is greater than 100 µM; with XF 498 CNS, 46.5 µM.

For `O=C1CCC2(c3ccc(F)cc3)Nc3cc(Cl)ccc3N12` (centres undefined), the TGI with DLD-1 colon, with DMS 273 small cell lung, in the assay on HOP-18 NSCLC, in the assay with KM20L2 colon, in the assay with LXFL 529 NSCLC and with SNB-78 CNS was greater than 100 µM in each case. In the assay with XF 498 CNS, the TGI is 86.2 µM.

As to `NC(CCC(=O)NC(CSSCCCCS(=O)O)C(=O)NCC(=O)O)C(=O)O` (centres undefined), the TGI with DLD-1 colon, in the assay with DMS 273 small cell lung, with HOP-18 NSCLC, with KM20L2 colon, in the assay with LXFL 529 NSCLC and in the assay on RXF-631 renal was greater than 100 µM each time. Besides, the TGI in the assay with SNB-78 CNS and with XF 498 CNS was greater than 100 µM in each case.

What is called TGI is the concentration at which net growth stops. Lower therefore signals more potent growth arrest. A word on the GI50: it is the concentration that inhibits growth by half.
